Columns and labels:
Assay type in all cases: functional
UO-31 [1] = test: Cytotoxicity against human UO31 cells after 1 to 11 days by MTT assay
HT-29 = test: Cytotoxicity against human HT-29 cells after 1 to 11 days by MTT assay
OVCAR-4 = test: Cytotoxicity against human OVCAR4 cells assessed as cell growth at 1 mM after 1 to 11 days by MTT assay; details: read-out: Activity
A549 = test: Cytotoxicity against human A549 cells assessed as cell growth at 1 mM after 1 to 11 days by MTT assay; details: read-out: Activity
UO-31 [2] = test: Cytotoxicity against human UO31 cells assessed as cell growth at 10 uM after 1 to 11 days by MTT assay; details: read-out: Activity
ACHN [3] = test: Cytotoxicity against human ACHN cells assessed as cell growth at 1 mM after 1 to 11 days by MTT assay; details: read-out: Activity
NCI/ADR-RES [4] = test: Cytotoxicity against human NCI/ADR-RES cells assessed as cell growth at 1 mM after 1 to 11 days by MTT assay; details: read-out: Activity
SK-MEL-28 [5] = test: Cytotoxicity against human SK-MEL-28 cells assessed as cell growth at 1 uM after 1 to 11 days by MTT assay; details: read-out: Activity
NCI-H322M = test: Cytotoxicity against human NCI-H322M cells assessed as cell growth at 1 mM after 1 to 11 days by MTT assay; details: read-out: Activity
ACHN [6] = test: Cytotoxicity against human ACHN cells assessed as cell growth at 0.1 uM after 1 to 11 days by MTT assay; details: read-out: Activity
KM12 = test: Cytotoxicity against human KM12 cells assessed as cell growth at 0.1 uM after 1 to 11 days by MTT assay; details: read-out: Activity
HL-60(TB) [7] = test: Cytotoxicity against human HL-60(TB) cells assessed as cell growth at 10 uM after 1 to 11 days by MTT assay; details: read-out: Activity
SNB-19 = test: Cytotoxicity against human SNB19 cells assessed as cell growth at 100 uM after 1 to 11 days by MTT assay; details: read-out: Activity
SK-MEL-5 [8] = test: Cytotoxicity against human SK-MEL-5 cells assessed as cell growth at 0.1 uM after 1 to 11 days by MTT assay; details: read-out: Activity
HL-60(TB) [9] = test: Cytotoxicity against human HL-60(TB) cells after 1 to 11 days by MTT assay
M14 [10] = test: Cytotoxicity against human M14 cells assessed as cell growth at 1 mM after 1 to 11 days by MTT assay; details: read-out: Activity
SK-OV-3 = test: Cytotoxicity against human SKOV3 cells assessed as cell growth at 0.1 uM after 1 to 11 days by MTT assay; details: read-out: Activity
OVCAR-8 = test: Cytotoxicity against human OVCAR8 cells assessed as cell growth at 1 mM after 1 to 11 days by MTT assay; details: read-out: Activity
A498 = test: Cytotoxicity against human A498 cells assessed as cell growth at 100 uM after 1 to 11 days by MTT assay; details: read-out: Activity
SNB-75 = test: Cytotoxicity against human SNB75 cells assessed as cell growth at 1 uM after 1 to 11 days by MTT assay; details: read-out: Activity
HOP-62 = test: Cytotoxicity against human HOP62 cells assessed as cell growth at 1 uM after 1 to 11 days by MTT assay; details: read-out: Activity
HCT-116 [11] = test: Cytotoxicity against human HCT116 cells assessed as cell growth at 100 uM after 1 to 11 days by MTT assay; details: read-out: Activity
MCF7 = test: Cytotoxicity against human MCF7 cells assessed as cell growth at 100 uM after 1 to 11 days by MTT assay; details: read-out: Activity
Malme-3M [12] = test: Cytotoxicity against human MALME-3M cells assessed as cell growth at 10 uM after 1 to 11 days by MTT assay; details: read-out: Activity
SK-MEL-28 [13] = test: Cytotoxicity against human SK-MEL-28 cells assessed as cell growth at 0.1 uM after 1 to 11 days by MTT assay; details: read-out: Activity
IGROV-1 = test: Cytotoxicity against human IGROV1 cells after 1 to 11 days by MTT assay
NCI/ADR-RES [14] = test: Cytotoxicity against human NCI/ADR-RES cells assessed as cell growth at 10 uM after 1 to 11 days by MTT assay; details: read-out: Activity
SR [15] = test: Cytotoxicity against human SR cells assessed as cell growth at 100 uM after 1 to 11 days by MTT assay; details: read-out: Activity
SR [16] = test: Cytotoxicity against human SR cells after 1 to 11 days by MTT assay
NCI-H23 = test: Cytotoxicity against human NCI-H23 cells assessed as cell growth at 0.1 uM after 1 to 11 days by MTT assay; details: read-out: Activity
HL-60(TB) [17] = test: Cytotoxicity against human HL-60(TB) cells assessed as cell growth at 1 uM after 1 to 11 days by MTT assay; details: read-out: Activity
CCRF-CEM = test: Cytotoxicity against human CCRF-CEM cells after 1 to 11 days by MTT assay
COLO 205 = test: Cytotoxicity against human COLO205 cells after 1 to 11 days by MTT assay
RXF 393 = test: Cytotoxicity against human […] cells assessed as cell growth at 1 mM after 1 to 11 days by MTT assay; details: read-out: Activity
HCT-116 [18] = test: Cytotoxicity against human HCT116 cells assessed as cell growth at 0.1 uM after 1 to 11 days by MTT assay; details: read-out: Activity
MOLT-4 = test: Cytotoxicity against human MOLT4 cells assessed as cell growth at 1 uM after 1 to 11 days by MTT assay; details: read-out: Activity
MDA-MB-468 = test: Cytotoxicity against human MDA-MB-468 cells assessed as cell growth at 1 uM after 1 to 11 days by MTT assay; details: read-out: Activity
M14 [19] = test: Cytotoxicity against human M14 cells after 1 to 11 days by MTT assay
SF-539 = test: Cytotoxicity against human SF539 cells assessed as cell growth at 10 uM after 1 to 11 days by MTT assay; details: read-out: Activity
SK-MEL-5 [20] = test: Cytotoxicity against human SK-MEL-5 cells assessed as cell growth at 1 uM after 1 to 11 days by MTT assay; details: read-out: Activity
Malme-3M [21] = test: Cytotoxicity against human MALME-3M cells assessed as cell growth at 1 uM after 1 to 11 days by MTT assay; details: read-out: Activity
NCI-H522 = test: Cytotoxicity against human NCI-H522 cells assessed as cell growth at 1 uM after 1 to 11 days by MTT assay; details: read-out: Activity
NCI-H460 = test: Cytotoxicity against human NCI-H460 cells assessed as cell growth at 0.1 uM after 1 to 11 days by MTT assay; details: read-out: Activity
[22] = read-out: LC50 (the source's name)

O=C1Nc2ncccc2/C1=C1/Nc2ccccc2/C1=N\O
GI50 (UO-31 [1]): 1.58 µM
TGI (UO-31 [1]): > 100 µM
CC50 (UO-31 [1]; [22]): > 100 µM
GI50 (HT-29): 88.8 µM
TGI (HT-29): > 100 µM
CC50 (HT-29; [22]): > 100 µM
growth at 1000 µM (OVCAR-4): 39%
growth at 1000 µM (A549): 13%
growth at 10 µM (UO-31 [2]): 62%
growth at 1000 µM (ACHN [3]): 17%
growth at 1000 µM (NCI/ADR-RES [4]): 55%
growth at 1 µM (SK-MEL-28 [5]): 87%
growth at 1000 µM (NCI-H322M): 12%
growth at 0.1 µM (ACHN [6]): 102%
growth at 0.1 µM (KM12): 95%
growth at 10 µM (HL-60(TB) [7]): 80%
growth at 100 µM (SNB-19): 78%
growth at 0.1 µM (SK-MEL-5 [8]): 104%
GI50 (HL-60(TB) [9]): 5.23 µM
TGI (HL-60(TB) [9]): > 100 µM
CC50 (HL-60(TB) [9]; [22]): > 100 µM
growth at 1000 µM (M14 [10]): 21%
growth at 0.1 µM (SK-OV-3): 100%
growth at 1000 µM (OVCAR-8): 52%
growth at 100 µM (A498): 18%
growth at 1 µM (SNB-75): 90%
growth at 1 µM (HOP-62): 100%
growth at 100 µM (HCT-116 [11]): 46%
growth at 100 µM (MCF7): 52%
growth at 10 µM (Malme-3M [12]): 91%
growth at 0.1 µM (SK-MEL-28 [13]): 88%
GI50 (IGROV-1): 1.64 µM
TGI (IGROV-1): > 100 µM
CC50 (IGROV-1; [22]): > 100 µM
growth at 10 µM (NCI/ADR-RES [14]): 99%
growth at 100 µM (SR [15]): 29%
GI50 (SR [16]): 6.65 µM
TGI (SR [16]): > 100 µM
CC50 (SR [16]; [22]): > 100 µM
growth at 0.1 µM (NCI-H23): 96%
growth at 1 µM (HL-60(TB) [17]): 99%
GI50 (CCRF-CEM): 5.07 µM
TGI (CCRF-CEM): > 100 µM
CC50 (CCRF-CEM; [22]): > 100 µM
GI50 (COLO 205): 1.73 µM
TGI (COLO 205): > 100 µM
CC50 (COLO 205; [22]): > 100 µM
growth at 1000 µM (RXF 393): 7%
growth at 0.1 µM (HCT-116 [18]): 109%
growth at 1 µM (MOLT-4): 77%
growth at 1 µM (MDA-MB-468): 75%
GI50 (M14 [19]): 7.95 µM
TGI (M14 [19]): > 100 µM
CC50 (M14 [19]; [22]): > 100 µM
growth at 10 µM (SF-539): 87%
growth at 1 µM (SK-MEL-5 [20]): 98%
growth at 1 µM (Malme-3M [21]): 89%
growth at 1 µM (NCI-H522): 99%
growth at 0.1 µM (NCI-H460): 110%
